Measurements reported in patent publication US20230115945A1, “AMINOPYRIMIDINE COMPOUNDS” (TYRA BIOSCIENCES, INC., priority 2019, published 2023).

How the values were obtained:
Details in all cases: 11-point 3-fold dilution, qPCR readout
[1] = target: T1, FGFR2 (Homo sapiens, UniProt P21802); test: Kinase binding assay (Kd), FGFR2
T1 construct: made in house; host or cells: E. coli host derived from BL21, infected with T7 phage
Method: (§1) Kinase-tagged T7 phage strains were prepared in an E. coli host derived from the BL21 strain. E. coli were grown to log-phase and infected with T7 phage and incubated with shaking at 32° C. until lysis. The lysates were centrifuged and filtered to remove cell debris. Streptavidin-coated magnetic beads were treated with biotinylated small molecule ligands for 30 minutes at room temperature to generate affinity resins for kinase assays. The liganded beads were blocked with excess biotin and washed with blocking buffer SeaBlock (Pierce), 1% BSA, 0.05% Tween 20, 1 mM DTT to remove unbound ligand and to reduce non-specific binding. Binding reactions were assembled by combining kinases, liganded affinity beads, and test compounds in 1× binding buffer (20% SeaBlock, 0.17×PBS, 0.05% Tween 20, 6 mM DTT).
(§2) Test compounds were prepared as 111X stocks in 100% DMSO. Kds were determined using an 11-point 3-fold compound dilution series with three DMSO control points. All compounds for Kd measurements are distributed by acoustic transfer (non-contact dispensing) in 100% DMSO. The compounds were then diluted directly into the assays such that the final concentration of DMSO was 0.9%. All reactions performed in polypropylene 384-well plate. Each was a final volume of 0.02 ml. The assay plates were incubated at room temperature with shaking for 1 hour and the affinity beads were washed with wash buffer (lx PBS, 0.05% Tween 20). The beads were then re-suspended in elution buffer (lx PBS, 0.05% Tween 20, 0.5 μM non-biotinylated affinity ligand) and incubated at room temperature with shaking for 30 minutes. The kinase concentration in the eluates was measured by qPCR.
(§3) Binding constants were calculated with a standard dose-response curve using the Hill equation: […]
(§4) The Hill Slope was set to −1. Curves were fitted using a non-linear least square fit with the Levenberg-Marquardt algorithm.

[2] = target: T2, FGFR3 (Homo sapiens, UniProt P22607); test: Kinase binding assay (Kd), FGFR3
T2 construct: made in house; host or cells: E. coli host derived from BL21, infected with T7 phage
Method: as §1, §2, §3, §4

[3] = target: T3, FGFR3 (V555M) (Homo sapiens, UniProt P22607, V555M); test: Kinase binding assay (Kd), FGFR3 (V555M)
T3 construct: made in house; host or cells: E. coli host derived from BL21, infected with T7 phage
Method: as §1, §2, §3, §4

[4] = target: T4, FGFR1 (Homo sapiens, UniProt P11362); test: Kinase binding assay (Kd), FGFR1
T4 construct: made in house; host or cells: E. coli host derived from BL21, infected with T7 phage
Method: as §1, §2, §3, §4

[5] = target: T5, FGFR4 (Homo sapiens, UniProt P22455); test: Kinase binding assay (Kd), FGFR4
T5 construct: made in house; host or cells: E. coli host derived from BL21, infected with T7 phage
Method: as §1, §2, §3, §4

T2 sequence (P22607 23-806): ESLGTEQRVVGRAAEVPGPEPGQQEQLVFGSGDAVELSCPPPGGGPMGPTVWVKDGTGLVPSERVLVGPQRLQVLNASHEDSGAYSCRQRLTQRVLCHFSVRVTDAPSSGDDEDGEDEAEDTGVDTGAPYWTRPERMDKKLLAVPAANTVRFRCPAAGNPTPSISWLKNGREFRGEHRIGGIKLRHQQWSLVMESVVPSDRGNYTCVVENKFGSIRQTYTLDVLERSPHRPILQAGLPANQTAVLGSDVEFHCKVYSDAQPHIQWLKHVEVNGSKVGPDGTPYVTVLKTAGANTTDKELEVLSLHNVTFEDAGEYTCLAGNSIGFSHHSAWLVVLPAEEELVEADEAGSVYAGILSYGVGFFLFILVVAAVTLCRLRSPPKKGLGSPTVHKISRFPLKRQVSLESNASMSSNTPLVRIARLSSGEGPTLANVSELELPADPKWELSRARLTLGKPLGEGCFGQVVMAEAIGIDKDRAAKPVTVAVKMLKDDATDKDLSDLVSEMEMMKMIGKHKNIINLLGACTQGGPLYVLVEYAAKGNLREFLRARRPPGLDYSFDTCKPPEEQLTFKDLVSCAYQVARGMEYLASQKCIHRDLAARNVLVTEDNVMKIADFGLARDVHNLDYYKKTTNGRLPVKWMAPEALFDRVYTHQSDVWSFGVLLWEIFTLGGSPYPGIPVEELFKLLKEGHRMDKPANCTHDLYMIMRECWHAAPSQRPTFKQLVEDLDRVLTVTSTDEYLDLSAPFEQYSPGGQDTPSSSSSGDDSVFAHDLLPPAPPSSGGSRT
T5 sequence (P22455 22-802): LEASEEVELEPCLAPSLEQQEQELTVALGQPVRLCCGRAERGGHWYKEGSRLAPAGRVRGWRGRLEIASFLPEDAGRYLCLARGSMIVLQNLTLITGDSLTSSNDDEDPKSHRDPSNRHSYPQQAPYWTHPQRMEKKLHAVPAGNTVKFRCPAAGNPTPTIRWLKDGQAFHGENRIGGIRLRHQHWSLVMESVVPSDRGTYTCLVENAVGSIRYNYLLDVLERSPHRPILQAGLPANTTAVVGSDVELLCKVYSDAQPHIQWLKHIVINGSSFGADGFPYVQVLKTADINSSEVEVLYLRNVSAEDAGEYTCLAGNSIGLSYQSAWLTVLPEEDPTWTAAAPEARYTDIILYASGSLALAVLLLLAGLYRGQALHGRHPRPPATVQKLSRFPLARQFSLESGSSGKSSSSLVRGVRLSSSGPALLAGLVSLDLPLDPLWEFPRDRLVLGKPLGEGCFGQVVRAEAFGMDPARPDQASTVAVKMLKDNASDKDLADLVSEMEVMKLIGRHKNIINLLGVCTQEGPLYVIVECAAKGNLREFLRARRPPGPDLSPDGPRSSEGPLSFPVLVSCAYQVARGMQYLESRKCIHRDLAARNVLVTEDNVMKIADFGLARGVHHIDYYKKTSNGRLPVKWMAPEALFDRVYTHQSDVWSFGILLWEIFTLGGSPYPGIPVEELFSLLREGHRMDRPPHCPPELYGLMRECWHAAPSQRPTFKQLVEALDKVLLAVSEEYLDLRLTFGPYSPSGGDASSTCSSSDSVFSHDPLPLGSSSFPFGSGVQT
T1 sequence (P21802 22-821): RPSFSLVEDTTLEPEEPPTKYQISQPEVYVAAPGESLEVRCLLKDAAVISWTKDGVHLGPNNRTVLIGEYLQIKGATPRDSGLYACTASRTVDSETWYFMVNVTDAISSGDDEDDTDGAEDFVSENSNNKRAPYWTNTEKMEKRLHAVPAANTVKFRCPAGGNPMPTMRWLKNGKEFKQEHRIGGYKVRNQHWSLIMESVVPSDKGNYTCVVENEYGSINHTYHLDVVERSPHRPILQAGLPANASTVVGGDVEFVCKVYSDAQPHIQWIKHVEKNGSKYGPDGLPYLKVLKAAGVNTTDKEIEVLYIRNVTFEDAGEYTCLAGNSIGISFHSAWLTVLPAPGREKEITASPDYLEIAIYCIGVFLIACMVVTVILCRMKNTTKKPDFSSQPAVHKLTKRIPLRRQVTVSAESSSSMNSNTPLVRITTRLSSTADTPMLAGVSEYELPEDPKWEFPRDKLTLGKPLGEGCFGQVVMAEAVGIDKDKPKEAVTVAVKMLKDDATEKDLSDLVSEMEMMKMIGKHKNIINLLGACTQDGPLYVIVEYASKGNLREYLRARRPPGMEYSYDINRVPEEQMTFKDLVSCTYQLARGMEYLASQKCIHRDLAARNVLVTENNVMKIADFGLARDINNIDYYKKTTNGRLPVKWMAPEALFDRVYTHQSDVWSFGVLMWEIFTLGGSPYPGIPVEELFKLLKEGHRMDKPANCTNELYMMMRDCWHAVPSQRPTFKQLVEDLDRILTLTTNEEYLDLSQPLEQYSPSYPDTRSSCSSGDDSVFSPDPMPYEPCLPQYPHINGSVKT
T4 sequence (P11362 22-822): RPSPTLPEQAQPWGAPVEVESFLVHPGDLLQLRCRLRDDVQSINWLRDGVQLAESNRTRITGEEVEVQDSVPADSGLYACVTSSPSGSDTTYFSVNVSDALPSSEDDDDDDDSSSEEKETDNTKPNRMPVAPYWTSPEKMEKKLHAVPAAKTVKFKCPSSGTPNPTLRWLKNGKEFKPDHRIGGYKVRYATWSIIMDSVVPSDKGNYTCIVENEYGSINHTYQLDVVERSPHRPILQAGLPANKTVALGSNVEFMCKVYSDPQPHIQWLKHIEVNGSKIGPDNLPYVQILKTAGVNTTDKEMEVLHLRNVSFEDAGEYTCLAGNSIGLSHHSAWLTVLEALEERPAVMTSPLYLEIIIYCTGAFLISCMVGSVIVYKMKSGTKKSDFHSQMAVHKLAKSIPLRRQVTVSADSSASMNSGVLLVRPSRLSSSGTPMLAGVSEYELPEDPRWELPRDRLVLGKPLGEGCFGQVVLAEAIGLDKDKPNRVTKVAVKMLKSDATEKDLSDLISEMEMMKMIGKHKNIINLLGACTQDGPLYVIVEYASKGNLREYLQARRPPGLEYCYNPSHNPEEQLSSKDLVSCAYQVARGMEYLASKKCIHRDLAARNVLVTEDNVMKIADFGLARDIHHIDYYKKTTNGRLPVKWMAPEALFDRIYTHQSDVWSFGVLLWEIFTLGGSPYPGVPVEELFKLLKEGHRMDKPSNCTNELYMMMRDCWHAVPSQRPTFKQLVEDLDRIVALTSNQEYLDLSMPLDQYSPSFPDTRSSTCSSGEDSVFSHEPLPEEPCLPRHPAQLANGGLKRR
T3 sequence (P22607 23-806 V555M): as the sequence (P22607 23-806) above, with V533M counted along it

Structure (SMILES): C=CC(=O)Nc1ccc2c(ccn2-c2nc(Nc3ccc(S(C)(=N)=O)cc3OC)ncc2Cl)c1 (single isomer, unassigned) [Example 88, N-[1-[5-Chloro-2-[2-methoxy-4-(methylsulfonimidoyl)-anilino]-pyrimidin-4-yl]indol-5-yl]prop-2-enamide]
- Kd [1]: 26000 nM
- Kd [2]: 8800 nM
- Kd [3]: 840 nM
- Kd [4]: 20000 nM

Structure (SMILES): COc1cc(N=S(C)(C)=O)ccc1Nc1ncc(Cl)c(-c2c[nH]c3ccccc23)n1 [Example 1, 5-chloro-N-[4-[[dimethyl(oxo)-λ^6-sulfanylidene]amino]-2-methoxy-phenyl]-4-(1H-indol-3-yl)pyrimidin-2-amine]
- Kd [1]: 370 nM
- Kd [2]: 170 nM
- Kd [5]: 130 nM
- Kd [3]: 15 nM
- Kd [4]: 140 nM

Structure (SMILES): CCOc1cc(N=S(C)(C)=O)ccc1Nc1ncc(Cl)c(-c2c[nH]c3ccccc23)n1 [Example 2, 5-Chloro-N-[4-[[dimethyl(oxo)-λ^6-sulfanylidene]amino]-2-ethoxy-phenyl]-4-(1H-indol-3-yl)pyrimidin-2-amine]
- Kd [1]: 1900 nM
- Kd [2]: 430 nM
- Kd [5]: 39 nM
- Kd [3]: 53 nM
- Kd [4]: 480 nM

Structure (SMILES): CC(C)COc1cc(N=S(C)(C)=O)ccc1Nc1ncc(Cl)c(-c2c[nH]c3ccccc23)n1 [Example 4, 5-chloro-N-[4-[[dimethyl(oxo)-λ^6-sulfanylidene]amino]-2-isobutoxy-phenyl]-4-(1H-indol-3-yl)pyrimidin-2-amine]
- Kd [5]: 210 nM
- Kd [3]: 4100 nM
- Kd [4]: 21000 nM

Structure (SMILES): COc1c(N=S(C)(C)=O)cccc1Nc1ncc(Cl)c(-c2c[nH]c3ccccc23)n1 [Example 5, 5-chloro-N-[3-[[dimethyl(oxo)-λ^6-sulfanylidene]amino]-2-methoxy-phenyl]-4-(1H-indol-3-yl)pyrimidin-2-amine]
- Kd [1]: 14000 nM
- Kd [2]: 4300 nM
- Kd [5]: 6200 nM
- Kd [3]: 420 nM
- Kd [4]: 3300 nM

Structure (SMILES): COc1ccc(N=S(C)(C)=O)cc1Nc1ncc(Cl)c(-c2c[nH]c3ccccc23)n1 [Example 6, 5-chloro-N-[5-[[dimethyl(oxo)-λ^6-sulfanylidene]amino]-2-methoxy-phenyl]-4-(1H-indol-3-yl)pyrimidin-2-amine]
- Kd [1]: 1700 nM
- Kd [2]: 1100 nM
- Kd [5]: 2000 nM
- Kd [3]: 90 nM
- Kd [4]: 390 nM

Structure (SMILES): CS(C)(=O)=Nc1cccc(Nc2ncc(Cl)c(-c3c[nH]c4ccccc34)n2)c1 [Example 7, 5-chloro-N-[3-[[dimethyl(oxo)-λ^6-sulfanylidene]amino]phenyl]-4-(1H-indol-3-yl)pyrimidin-2-amine]
- Kd [1]: 140 nM
- Kd [2]: 40 nM
- Kd [5]: 280 nM
- Kd [3]: 4 nM
- Kd [4]: 21 nM

Structure (SMILES): CS(C)(=O)=Nc1ccc(Nc2ncc(Cl)c(-c3c[nH]c4ccccc34)n2)cc1 [Example 8, 5-chloro-N-[4-[[dimethyl(oxo)-λ^6-sulfanylidene]amino]phenyl]-4-(1H-indol-3-yl)pyrimidin-2-amine]
- Kd [1]: 24 nM
- Kd [2]: 29 nM
- Kd [5]: 180 nM
- Kd [3]: 4 nM
- Kd [4]: 19 nM

Structure (SMILES): CCOc1cc(N=S(C)(C)=O)ccc1Nc1ncc(C)c(-c2c[nH]c3c(C)cccc23)n1 [Example 9, N-[4-[[dimethyl(oxo)-λ^6-sulfanylidene]amino]-2-ethoxy-phenyl]-5-methyl-4-(7-methyl-1H-indol-3-yl)pyrimidin-2-amine]
- Kd [1]: 3300 nM
- Kd [2]: 370 nM
- Kd [5]: 57 nM
- Kd [3]: 57 nM
- Kd [4]: 350 nM

Structure (SMILES): CS(C)(=O)=Nc1ccc(Nc2nccc(-c3c[nH]c4ccccc34)n2)cc1 [Example 10, N-[4-[[dimethyl(oxo)-λ^6-sulfanylidene]amino]phenyl]-4-(1H-indol-3-yl)pyrimidin-2-amine]
- Kd [1]: 3300 nM
- Kd [2]: 370 nM
- Kd [5]: 57 nM
- Kd [3]: 57 nM
- Kd [4]: 350 nM

Structure (SMILES): CS(C)(=O)=Nc1ccc(Nc2cc(-c3c[nH]c4ccccc34)ncn2)cc1 [Example 12, N-[4-[[dimethyl(oxo)-λ^6-sulfanylidene]amino]phenyl]-6-(1H-indol-3-yl)pyrimidin-4-amine]
- Kd [1]: 3300 nM
- Kd [2]: 370 nM
- Kd [5]: 57 nM
- Kd [3]: 57 nM
- Kd [4]: 350 nM

Structure (SMILES): CS(C)(=O)=Nc1ccc(Nc2nccc(-n3ccc4ccccc43)n2)cc1 [Example 13, N-[4-[[dimethyl(oxo)-λ^6-sulfanylidene]amino]phenyl]-4-indol-1-yl-pyrimidin-2-amine]
- Kd [1]: 3300 nM
- Kd [2]: 370 nM
- Kd [5]: 57 nM
- Kd [3]: 57 nM
- Kd [4]: 350 nM

Structure (SMILES): Cc1cnc(Nc2ccc(N=S(C)(C)=O)cc2)nc1-n1ccc2ccccc21 [Example 14, N-[4-[[dimethyl(oxo)-λ^6-sulfanylidene]amino]phenyl]-4-indol-1-yl-5-methyl-pyrimidin-2-amine]
- Kd [1]: 110 nM
- Kd [2]: 170 nM
- Kd [5]: 1500 nM
- Kd [3]: 9 nM
- Kd [4]: 190 nM

Structure (SMILES): CS(C)(=O)=Nc1ccc(Nc2cc(-n3ccc4ccccc43)ncn2)cc1 [Example 15, N-[4-[[dimethyl(oxo)-λ^6-sulfanylidene]amino]phenyl]-6-indol-1-yl-pyrimidin-4-amine]
- Kd [1]: 14000 nM
- Kd [2]: 18000 nM
- Kd [3]: 3700 nM
- Kd [4]: 29000 nM

Structure (SMILES): CN1CCS(=O)(=Nc2ccc(Nc3nccc(-n4ccc5ccccc54)n3)cc2)CC1 [Example 16, 4-Indol-1-yl-N-[4-[(4-methyl-1-oxo-1,4-thiazinan-1-ylidene)amino]phenyl]-pyrimidin-2-amine]
- Kd [1]: 600 nM
- Kd [2]: 570 nM
- Kd [5]: 9500 nM
- Kd [3]: 140 nM
- Kd [4]: 2200 nM

Structure (SMILES): CS(C)(=O)=Nc1ccc(Nc2nccc(-n3ccc4ccccc43)n2)c(N)c1 [Example 18, 4-[[dimethyl(oxo)-λ^6-sulfanylidene]amino]-N1-(4-indol-1-ylpyrimidin-2-yl)benzene-1,2-diamine]
- Kd [1]: 21000 nM
- Kd [2]: 20000 nM
- Kd [3]: 12000 nM

Structure (SMILES): C=CC(=O)Nc1cc(N=S(C)(C)=O)ccc1Nc1nccc(-n2ccc3ccccc32)n1 [Example 19, N-[5-[[dimethyl(oxo)-λ^6-sulfanylidene]amino]-2-[(4-indol-1-ylpyrimidin-2-yl)amino]phenyl]prop-2-enamide]
- Kd [3]: 3000 nM

Structure (SMILES): C=CC(=O)Nc1cc(N=S(C)(C)=O)ccc1Nc1ncc(C)c(-c2c[nH]c3ccccc23)n1 [Example 20, N-[5-[[Dimethyl(oxo)-λ^6-sulfanylidene]amino]-2-[[4-(1H-indol-3-yl)-5-methyl-pyrimidin-2-yl]amino]phenyl]prop-2-enamide]
- Kd [1]: 51 nM
- Kd [2]: 27 nM
- Kd [5]: 120 nM
- Kd [3]: 4 nM
- Kd [4]: 37 nM

Structure (SMILES): CC(=O)c1cn(-c2nc(Nc3ccc(N=S(C)(C)=O)cc3)ncc2C)c2ccccc12 [Example 21, 1-[1-[2-[4-[[Dimethyl(oxo)-λ^6-sulfanylidene]amino]anilino]-5-methyl-pyrimidin-4-yl]indol-3-yl]ethanone]
- Kd [2]: 27000 nM

Structure (SMILES): Cc1ccc2c(-c3nc(Nc4ccc(N=S(C)(C)=O)cc4)ncc3C)c[nH]c2c1 [Example 28, N-[4-[[dimethyl(oxo)-λ^6-sulfanylidene]amino]phenyl]-5-methyl-4-(6-methyl-1H-indol-3-yl)pyrimidin-2-amine]
- Kd [1]: 63 nM
- Kd [2]: 44 nM
- Kd [5]: 290 nM
- Kd [3]: 4 nM
- Kd [4]: 27 nM

Structure (SMILES): Cc1cnc(Nc2ccc(N=S(C)(C)=O)cc2)nc1-c1c[nH]c2cc(F)ccc12 [Example 29, N-[4-[[dimethyl(oxo)-λ^6-sulfanylidene]amino]phenyl]-4-(6-fluoro-1H-indol-3-yl)-5-methyl-pyrimidin-2-amine]
- Kd [1]: 46 nM
- Kd [2]: 21 nM
- Kd [5]: 210 nM
- Kd [3]: 4 nM
- Kd [4]: 15 nM

Structure (SMILES): COc1ccc2c(-c3nc(Nc4ccc(N=S(C)(C)=O)cc4)ncc3C)c[nH]c2c1 [Example 30, N-[4-[[dimethyl(oxo)-λ^6-sulfanylidene]amino]phenyl]-4-(6-methoxy-1H-indol-3-yl)-5-methyl-pyrimidin-2-amine]
- Kd [1]: 41 nM
- Kd [2]: 35 nM
- Kd [5]: 190 nM
- Kd [3]: 2 nM
- Kd [4]: 27 nM

Structure (SMILES): COc1cc(Nc2ncc(C)c(-c3c[nH]c4c(F)cccc34)n2)ccc1N=S(C)(C)=O [Example 32, N-[4-[[dimethyl(oxo)-λ^6-sulfanylidene]amino]-3-methoxy-phenyl]-4-(7-fluoro-1H-indol-3-yl)-5-methyl-pyrimidin-2-amine]
- Kd [1]: 3 nM
- Kd [2]: 3 nM
- Kd [5]: 52 nM
- Kd [3]: 1 nM
- Kd [4]: 2 nM
